Each block holds one compound with its values, some of them ahead of it.
What was measured:
Coagulation factor X = Coagulation factor X (Homo sapiens, UniProt P00742); test: Inhibition of Factor 10a
[1] = Oral bioavailability in rat; format: ADME, organism-based; settings: in vivo
[2] = Clearance in Beagle dog at 0.5 mg/kg, iv and 2.5 mg/kg, po; format: ADME, organism-based, Canis lupus familiaris; settings: in vivo
[3] = Half life in rat at 1 mg/kg, iv and 5 mg/kg, po; format: ADME, organism-based; settings: in vivo
[4] = biological target: Vitamin K-dependent protein C (Homo sapiens, UniProt P04070); test: Inhibition of activated anticoagulant protein C
Vitamin K-dependent protein C, sequence (P04070 43-197 limits assumed): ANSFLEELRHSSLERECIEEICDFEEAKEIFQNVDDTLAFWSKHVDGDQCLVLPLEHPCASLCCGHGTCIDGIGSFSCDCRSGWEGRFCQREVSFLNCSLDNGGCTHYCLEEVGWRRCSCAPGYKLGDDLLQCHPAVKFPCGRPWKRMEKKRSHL
Vitamin K-dependent protein C, sequence (P04070 212-461 limits assumed): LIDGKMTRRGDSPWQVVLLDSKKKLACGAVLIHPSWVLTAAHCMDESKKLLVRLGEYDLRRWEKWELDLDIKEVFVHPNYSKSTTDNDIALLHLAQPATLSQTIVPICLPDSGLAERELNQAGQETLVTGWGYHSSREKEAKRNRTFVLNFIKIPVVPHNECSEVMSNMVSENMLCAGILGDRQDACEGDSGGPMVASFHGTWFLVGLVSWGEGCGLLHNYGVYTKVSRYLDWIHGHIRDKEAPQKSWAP

[5] = Inhibition of kallikrein
[6] = Oral bioavailability in cynomolgus monkey at 7.5 mg/kg; format: ADME, organism-based, Macaca fascicularis; settings: in vivo
[7] = Half life in Beagle dog at 0.5 mg/kg, iv and 2.5 mg/kg, po; format: ADME, organism-based, Canis lupus familiaris; settings: in vivo
[8] = Volume of distribution in cynomolgus monkey at 0.75 mg/kg, iv and 7.5 mg/kg, po; format: ADME, organism-based, Macaca fascicularis; settings: in vivo
[9] = Clearance in cynomolgus monkey at 0.75 mg/kg, iv and 7.5 mg/kg, po; format: ADME, organism-based, Macaca fascicularis; settings: in vivo
[10] = Half life in cynomolgus monkey at 0.75 mg/kg, iv and 7.5 mg/kg, po; format: ADME, organism-based, Macaca fascicularis; settings: in vivo
[11] = Inhibition of trypsin
[12] = AUC in rat at 5 mg/kg, po; format: ADME, organism-based; set-up: dose 5 mg/kg, route oral; settings: plasma
Prothrombin = Prothrombin (Homo sapiens, UniProt P00734); test: Inhibition of thrombin
[13] = biological target: Tissue-type plasminogen activator (Homo sapiens, UniProt P00750); test: Inhibition of tissue plasminogen activator
Tissue-type plasminogen activator, sequence (P00750 whole entry): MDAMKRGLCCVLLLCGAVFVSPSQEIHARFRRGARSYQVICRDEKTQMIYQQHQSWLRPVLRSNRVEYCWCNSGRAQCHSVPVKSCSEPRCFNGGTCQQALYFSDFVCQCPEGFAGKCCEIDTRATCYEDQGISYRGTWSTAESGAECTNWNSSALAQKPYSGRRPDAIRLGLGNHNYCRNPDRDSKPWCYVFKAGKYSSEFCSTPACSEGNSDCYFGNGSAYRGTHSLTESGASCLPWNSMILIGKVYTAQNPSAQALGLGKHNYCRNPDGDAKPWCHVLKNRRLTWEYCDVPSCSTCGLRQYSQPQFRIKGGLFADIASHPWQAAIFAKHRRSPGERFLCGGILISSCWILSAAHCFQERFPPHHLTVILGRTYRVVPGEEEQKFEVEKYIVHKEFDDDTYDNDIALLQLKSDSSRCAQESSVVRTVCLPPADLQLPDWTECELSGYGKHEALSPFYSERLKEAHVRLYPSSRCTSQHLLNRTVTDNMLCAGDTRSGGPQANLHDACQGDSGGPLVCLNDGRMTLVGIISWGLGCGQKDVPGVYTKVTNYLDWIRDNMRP

[14] = AUC in Beagle dog at 2.5 mg/kg, po; format: ADME, organism-based, Canis lupus familiaris; set-up: dose 2.5 mg/kg, route oral; settings: plasma
[15] = Fraction unbound in human plasma at 10 uM after 30 mins; format: ADME, cell-free
Plasminogen = Plasminogen (Homo sapiens, UniProt P00747); test: Inhibition of plasmin
Plasminogen, sequence (P00747 97-580 limits assumed): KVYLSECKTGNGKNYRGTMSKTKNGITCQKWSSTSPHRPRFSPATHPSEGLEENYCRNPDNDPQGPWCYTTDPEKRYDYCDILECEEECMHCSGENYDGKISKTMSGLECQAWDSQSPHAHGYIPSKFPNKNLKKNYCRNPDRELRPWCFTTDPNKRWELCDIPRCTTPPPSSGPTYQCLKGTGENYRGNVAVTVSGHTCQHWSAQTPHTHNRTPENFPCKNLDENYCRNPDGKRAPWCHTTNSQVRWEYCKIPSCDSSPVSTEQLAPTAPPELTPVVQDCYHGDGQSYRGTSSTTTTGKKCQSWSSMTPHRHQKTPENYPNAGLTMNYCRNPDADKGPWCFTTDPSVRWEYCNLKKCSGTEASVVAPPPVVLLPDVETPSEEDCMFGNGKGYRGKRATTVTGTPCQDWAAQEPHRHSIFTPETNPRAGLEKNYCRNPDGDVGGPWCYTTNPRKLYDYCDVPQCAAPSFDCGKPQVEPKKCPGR
Plasminogen, sequence (P00747 581-810 limits assumed): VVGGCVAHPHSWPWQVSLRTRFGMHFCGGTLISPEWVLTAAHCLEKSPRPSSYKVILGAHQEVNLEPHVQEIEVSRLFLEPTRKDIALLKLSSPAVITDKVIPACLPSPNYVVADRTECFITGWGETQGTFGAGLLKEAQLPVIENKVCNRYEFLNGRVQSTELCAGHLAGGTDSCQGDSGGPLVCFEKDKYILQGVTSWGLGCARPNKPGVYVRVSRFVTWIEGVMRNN

[16] = Volume of distribution in Beagle dog at 0.5 mg/kg, iv and 2.5 mg/kg, po; format: ADME, organism-based, Canis lupus familiaris; settings: in vivo
[17] = Volume of distribution in rat at 1 mg/kg, iv and 5 mg/kg, po; format: ADME, organism-based; settings: in vivo
[18] = Clearance in rat at 1 mg/kg, iv and 5 mg/kg, po; format: ADME, organism-based; settings: in vivo
[19] = Oral bioavailability in Beagle dog at 2.5 mg/kg; format: ADME, organism-based, Canis lupus familiaris; settings: in vivo
[20] = Oral bioavailability in rat at 5 mg/kg; format: ADME, organism-based; settings: in vivo
[21] = AUC in cynomolgus monkey at 7.5 mg/kg, po; format: ADME, organism-based, Macaca fascicularis; set-up: dose 7.5 mg/kg, route oral; settings: plasma
[22] = Clearance in rat at 0.2 mg/kg, iv and 6 mg/kg, po; format: ADME, organism-based; settings: in vivo
[23] = AUC in rat at 6 mg/kg, po; format: ADME, organism-based; set-up: dose 6 mg/kg, route oral; settings: plasma
[24] = Volume of distribution in cynomolgus monkey at 0.1 mg/kg, iv and 1 mg/kg, po; format: ADME, organism-based, Macaca fascicularis; settings: in vivo
[25] = biological target: Voltage-gated inwardly rectifying potassium channel KCNH2 (Homo sapiens, UniProt Q12809)
Voltage-gated inwardly rectifying potassium channel KCNH2, sequence (Q12809 whole entry): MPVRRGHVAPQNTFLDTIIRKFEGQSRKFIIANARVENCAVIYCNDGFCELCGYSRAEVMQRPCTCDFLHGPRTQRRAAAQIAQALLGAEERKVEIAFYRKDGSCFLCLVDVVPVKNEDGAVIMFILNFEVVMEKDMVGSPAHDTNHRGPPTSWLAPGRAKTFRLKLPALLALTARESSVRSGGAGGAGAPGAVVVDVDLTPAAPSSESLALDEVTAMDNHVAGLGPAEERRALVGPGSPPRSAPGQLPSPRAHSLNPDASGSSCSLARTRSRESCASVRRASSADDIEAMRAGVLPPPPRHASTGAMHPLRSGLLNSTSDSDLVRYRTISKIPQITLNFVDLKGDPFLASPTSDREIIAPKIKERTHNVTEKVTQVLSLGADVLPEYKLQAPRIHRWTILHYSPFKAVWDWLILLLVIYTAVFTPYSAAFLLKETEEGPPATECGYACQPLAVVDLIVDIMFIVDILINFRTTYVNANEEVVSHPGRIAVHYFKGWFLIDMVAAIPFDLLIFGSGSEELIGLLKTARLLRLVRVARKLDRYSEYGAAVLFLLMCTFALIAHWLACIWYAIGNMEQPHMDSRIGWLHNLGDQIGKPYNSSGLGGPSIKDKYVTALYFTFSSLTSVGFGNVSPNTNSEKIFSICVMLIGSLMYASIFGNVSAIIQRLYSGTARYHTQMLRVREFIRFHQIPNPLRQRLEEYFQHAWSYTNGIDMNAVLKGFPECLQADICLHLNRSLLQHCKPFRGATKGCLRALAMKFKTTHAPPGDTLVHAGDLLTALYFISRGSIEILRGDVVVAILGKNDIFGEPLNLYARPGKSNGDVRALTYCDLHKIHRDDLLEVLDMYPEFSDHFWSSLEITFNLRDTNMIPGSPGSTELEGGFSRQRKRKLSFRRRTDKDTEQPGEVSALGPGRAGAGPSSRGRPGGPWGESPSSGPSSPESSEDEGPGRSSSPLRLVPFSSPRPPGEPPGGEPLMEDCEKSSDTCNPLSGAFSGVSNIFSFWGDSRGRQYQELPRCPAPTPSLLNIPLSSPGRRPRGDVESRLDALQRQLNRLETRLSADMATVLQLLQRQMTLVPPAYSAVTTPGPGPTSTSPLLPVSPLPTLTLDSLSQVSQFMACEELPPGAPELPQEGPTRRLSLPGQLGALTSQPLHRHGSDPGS

[26] = AUC in cynomolgus monkey at 1 mg/kg, po; format: ADME, organism-based, Macaca fascicularis; set-up: dose 1 mg/kg, route oral; settings: plasma
[27] = Volume of distribution in Beagle dog at 0.1 mg/kg, iv and 1 mg/kg, po; format: ADME, organism-based, Canis lupus familiaris; settings: in vivo
[28] = Half life in rat at 0.2 mg/kg, iv and 6 mg/kg, po; format: ADME, organism-based; settings: in vivo
[29] = Oral bioavailability in rat at 6 mg/kg; format: ADME, organism-based; settings: in vivo
[30] = AUC in Beagle dog at 1 mg/kg, po; format: ADME, organism-based, Canis lupus familiaris; set-up: dose 1 mg/kg, route oral; settings: plasma
[31] = Oral bioavailability in Beagle dog at 1 mg/kg; format: ADME, organism-based, Canis lupus familiaris; settings: in vivo
[32] = Half life in cynomolgus monkey at 0.1 mg/kg, iv and 1 mg/kg, po; format: ADME, organism-based, Macaca fascicularis; settings: in vivo
[33] = Clearance in cynomolgus monkey at 0.1 mg/kg, iv and 1 mg/kg, po; format: ADME, organism-based, Macaca fascicularis; settings: in vivo
[34] = Oral bioavailability in cynomolgus monkey at 1 mg/kg; format: ADME, organism-based, Macaca fascicularis; settings: in vivo
[35] = Volume of distribution in rat at 0.2 mg/kg, iv and 6 mg/kg, po; format: ADME, organism-based; settings: in vivo
[36] = Clearance in rat; format: ADME, organism-based; settings: in vivo
[37] = Half life in Beagle dog at 0.1 mg/kg, iv and 1 mg/kg, po; format: ADME, organism-based, Canis lupus familiaris; settings: in vivo
[38] = Clearance in Beagle dog at 0.1 mg/kg, iv and 1 mg/kg, po; format: ADME, organism-based, Canis lupus familiaris; settings: in vivo

Coagulation factor X, sequence (P00742 41-179 limits assumed): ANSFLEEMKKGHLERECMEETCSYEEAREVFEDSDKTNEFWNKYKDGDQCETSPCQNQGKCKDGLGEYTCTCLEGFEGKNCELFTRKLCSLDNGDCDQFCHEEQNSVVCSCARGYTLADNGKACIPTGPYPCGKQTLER
Coagulation factor X, sequence (P00742 235-488 limits assumed): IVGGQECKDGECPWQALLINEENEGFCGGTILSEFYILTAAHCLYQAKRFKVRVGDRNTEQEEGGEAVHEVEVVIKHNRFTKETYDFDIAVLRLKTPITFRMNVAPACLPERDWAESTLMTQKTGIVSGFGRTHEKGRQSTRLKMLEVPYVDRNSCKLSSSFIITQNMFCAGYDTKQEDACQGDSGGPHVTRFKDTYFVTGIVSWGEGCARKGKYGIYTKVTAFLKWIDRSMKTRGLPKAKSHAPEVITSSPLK

IC50 (Coagulation factor X): 1 nM
Compound: CCc1ccc(NC(=O)c2ccc(C(=N)N(C)C)cc2)c(C(=O)Nc2ccc(Cl)cn2)c1

IC50 (Coagulation factor X): 1.2 nM | bioavailability [1]: 8.1%
Compound: COCCN(C)c1cc(Cl)cc(C(=O)Nc2ccc(Cl)cn2)c1NC(=O)c1ccc(C(=N)N(C)C)cc1

IC50 (Coagulation factor X): 1.5 nM
Compound: CN(C)C(=N)c1ccc(C(=O)Nc2ccc(S(C)(=O)=O)cc2C(=O)Nc2ccc(Cl)cn2)cc1

IC50 (Coagulation factor X): 3 nM
Compound: CN(C)C(=N)c1ccc(C(=O)Nc2ccc(Cl)cc2C(=O)Nc2ccc(Cl)nc2)cc1

IC50 (Coagulation factor X): 6 nM
Compound: CN(C)C(=N)c1ccc(C(=O)Nc2ccc(Cl)cc2C(=O)Nc2ccc(Cl)s2)cc1

IC50 (Coagulation factor X): 1.5 nM
Compound: CN1CCN=C1c1ccc(C(=O)Nc2ccc(Cl)cc2C(=O)Nc2ccc(Cl)cn2)cc1

clearance [2]: 26.5 mL/min/kg | half-life [3]: 8.8 h | IC50 [4]: > 10000 nM | IC50 [5]: 6300 nM | bioavailability [6]: 58.7% | half-life [7]: 21.2 h | Vd [8]: 13.4 L/kg | clearance [9]: 18.7 mL/min/kg | half-life [10]: 9.6 h | IC50 [11]: > 10000 nM | AUC [12]: 456 ng·h/mL | IC50 (Prothrombin): > 10000 nM | IC50 [13]: > 10000 nM | AUC [14]: 825 ng·h/mL | fraction unbound at 0.5 h, 10 µM [15]: 0.8 | IC50 (Plasminogen): > 10000 nM | Vd [16]: 48.8 L/kg | Vd [17]: 32.9 L/kg | clearance [18]: 43.6 mL/min/kg | bioavailability [19]: 51.6% | bioavailability [20]: 23.8% | AUC [21]: 4180 ng·h/mL
Compound: COc1ccc(NC(=O)c2ccc(C(=N)N(C)C)cc2)c(C(=O)Nc2ccc(Cl)cn2)c1 [BETRIXABAN]

IC50 (Coagulation factor X): 1.3 nM
Compound: N=C(c1ccc(C(=O)Nc2ccc(Cl)cc2C(=O)Nc2ccc(Cl)cn2)cc1)N1CCCCC1

IC50 (Coagulation factor X): 0.4 nM
Compound: CN(C)C(=N)c1ccc(C(=O)Nc2ccc(Cl)cc2C(=O)Nc2ccc(Cl)cn2)c(N2CCC2)c1

IC50 (Coagulation factor X): < 0.5 nM
Compound: CN(C)CCOc1cc(C(=N)N(C)C)ccc1C(=O)Nc1ccc(Cl)cc1C(=O)Nc1ccc(Cl)cn1

IC50 (Coagulation factor X): 0.5 nM
Compound: COc1cc(C(=N)N(C)C)ccc1C(=O)Nc1ccc(Cl)cc1C(=O)Nc1ccc(Cl)cn1

clearance [22]: 15.3 mL/min/kg | IC50 [4]: > 10000 nM | IC50 [5]: 540 nM | AUC [23]: 2420 ng·h/mL | Vd [24]: 20.5 L/kg | IC50 (Coagulation factor X): < 0.5 nM | Ki (Coagulation factor X): 0.06 nM | AUC [26]: 1300 ng·h/mL | Vd [27]: 35.1 L/kg | half-life [28]: 5.2 h | bioavailability [29]: 38% | AUC [30]: 381 ng·h/mL | bioavailability [31]: 68.8% | half-life [32]: 22.8 h | IC50 [11]: > 10000 nM | clearance [33]: 11.2 mL/min/kg | bioavailability [34]: 86.1% | IC50 (Prothrombin): > 10000 nM | Vd [35]: 6.9 L/kg | IC50 [13]: > 10000 nM | clearance [36]: 15.3 mL/min/kg | IC50 (Plasminogen): > 10000 nM | bioavailability [1]: 38% | half-life [37]: 13.1 h | clearance [38]: 30.5 mL/min/kg
Compound: CN(C)C(=N)c1ccc(C(=O)Nc2ccc(Cl)cc2C(=O)Nc2ccc(Cl)cn2)c(F)c1
Ki [25]: 420 nM

IC50 (Coagulation factor X): 10 nM
Compound: CN(C)C(=N)c1ccc(C(=O)Nc2ccc(OCC(F)(F)F)cc2C(=O)Nc2ccc(Cl)cn2)cc1

— ChEMBL document CHEMBL1138586 (Bioorg Med Chem Lett, 2009)
